{"source": "paper PMC10254235", "about": "“Design, Synthesis, and Anti-Cervical Cancer and Reversal of Tumor Multidrug Resistance Activity of Novel Nitrogen-Containing Heterocyclic Chalcone Derivatives” (Molecules, 2023)", "key": {"P-gp": {"test_system": "P-gp", "assay": "Western blot, P-gp expression in HeLa/DDP cells", "type": "cell-based, human", "details": "0.25, 0.5 and 1 μM, p > 0.05", "method": "(§1) Next, the protein concentrations were determined using a BCA Protein Assay Kit (Solarbio, China). An equal amount of the proteins (12 μg) were separated using 8–12% sodium dodecyl sulfate–polyacrylamide gel electrophoresis (SDS-PAGE) and transferred to nitrocellulose membranes (Amersham Biosciences, Little Chalfont, Buckinghamshire, UK). Then, the membranes were blocked with 5% nonfat dried milk in TBS containing 1% Tween-20 for 2 h at room temperature and were incubated overnight with specific primary antibodies (CST, Boston, MA, USA) at 4 °C. After three washes in TBST, the membranes were incubated with the appropriate HRP-conjugated secondary antibodies at room temperature for 2 h. The blots were developed using enhanced chemiluminescence (Biosharp, Shanghai, China) and were detected using a PE 0723 imager (ProteinSimple, Silicon Valley, CA, USA). Each experiment was performed at least in triplicate and analyzed using Image J software (V1.8.0.112). […]\nTo reduce the adverse reactions caused by the fixation of drug resistance reversal agents, the concentration that reduces the proliferation rate of tumor cells by less than 10% was selected. Therefore, the inhibitory activity of compound 6f on HeLa/DDP cells was determined in the concentration ranges of 0.25, 0.5, and 1 μM combined with cisplatin. […]"}, "p-PI3K (Tyr458)": {"test_system": "p-PI3K (Tyr458)", "assay": "Western blot, p-PI3K in HeLa cells", "type": "cell-based, human", "details": "HeLa, 2, 4 and 6 μM, 24 h", "method": "as §1"}, "Bcl-2": {"test_system": "Bcl-2", "assay": "Western blot, Bcl-2 in HeLa cells", "type": "cell-based, human", "details": "HeLa, 2, 4 and 6 μM, 24 h, versus control, p < 0.05", "method": "as §1\nAfter incubation, cells were harvested and incubated using […] of Annexin-V/FITC (BD, America) in binding buffer (10 mM HEPES, 140 mM NaCl, and 2.5 mM CaCl2 at pH 7.4) at room temperature for 15 min. […] Almost 10,000 events were collected for each sample and analyzed using flow cytometry (BD, LSRFortessa, New York, NY, USA). […]"}, "p-VEGFR-2": {"test_system": "p-VEGFR-2", "assay": "Western blot, VEGFR-2 phosphorylation in HUVEC cells", "type": "cell-based, human", "details": "24 h, 6f 2, 4, 6 μM, sorafenib 4 μM, versus blank group, p < 0.05"}, "H8 cells": {"test_system": "H8 cells", "assay": "MTT cytotoxicity assay, normal cervical epithelial H8 cells", "type": "cell-based, human", "details": "Homo sapiens, 48 h, mean ± SD", "method": "HeLa and SiHa cell lines were obtained from the Procell Life Science Technology Co., Ltd. (Wuhan, China); H8 cell line was obtained from the Shanghai HonSun Biological Technology Co., Ltd. (Shanghai, China); HUVEC cell line was obtained from the Saibaikang (Shanghai) Biotechnology Co., Ltd. (Shanghai, China); HeLa/DDP cell line was obtained from the Guangzhou Jenniobio Biotechnology Co., Ltd. (Guangzhou, China). HeLa, SiHa, H8, and HeLa/DDP cells were cultured in DMEM medium (HyClone). The VEGF of 50 ng/mL was used as the promoter of the VEGFR-2 receptor on HUVEC cell membrane surfaces, and their inhibitory effects on VEGFR-2 were determined. All the mediums were supplemented with 10% FBS (HyClone, GE Healthcare, Australia). Cells were maintained at subconfluency at 37 °C in humidified air containing 5% CO2. The cells were monitored daily and maintained at 80% cell density. All compounds tested were dissolved in DMSO and then diluted by the culture medium before the treatment of cultured cells. Identification reports are available for all types of cell lines involved in this study.\nThe cytotoxicity of the target compounds were measured in vitro using the MTT assay. Cells grown in the logarithmic phase were counted and seeded in 96-well cell culture plates (5 × 10^3 cells per well) for 24 h to allow attachment of cells to the wall of the plate. […] Next, 20 μL of 5 mg.mL^−1 MTT solution was added to each well and cultured for 4 h. The old solution was discarded, replaced with 150 μL DMSO solution per well, and shaken for 10 min. The OD value was measured under 490 nm, and the inhibition rate was calculated. The nonlinear regression fitting of the cell growth rate was carried out using SPSS 23.0 software, and the IC50 of the compound was calculated. […] There were 6 compound holes in each group, and the experimental results were presented as the average of 3 experiments. A complete medium containing only cells was used as the blank control, whereas a complete medium without cells was the negative control group. Cisplatin and sorafenib were utilized as the positive control group, and the target compound was the experimental intervention group."}, "VEGFR-2": {"molecular_target": "T1, VEGFR-2 (Homo sapiens, UniProt P35968)", "T1 construct": "endogenous in cells; host or cells: HeLa cells", "T1 sequence (P35968 20-1356)": "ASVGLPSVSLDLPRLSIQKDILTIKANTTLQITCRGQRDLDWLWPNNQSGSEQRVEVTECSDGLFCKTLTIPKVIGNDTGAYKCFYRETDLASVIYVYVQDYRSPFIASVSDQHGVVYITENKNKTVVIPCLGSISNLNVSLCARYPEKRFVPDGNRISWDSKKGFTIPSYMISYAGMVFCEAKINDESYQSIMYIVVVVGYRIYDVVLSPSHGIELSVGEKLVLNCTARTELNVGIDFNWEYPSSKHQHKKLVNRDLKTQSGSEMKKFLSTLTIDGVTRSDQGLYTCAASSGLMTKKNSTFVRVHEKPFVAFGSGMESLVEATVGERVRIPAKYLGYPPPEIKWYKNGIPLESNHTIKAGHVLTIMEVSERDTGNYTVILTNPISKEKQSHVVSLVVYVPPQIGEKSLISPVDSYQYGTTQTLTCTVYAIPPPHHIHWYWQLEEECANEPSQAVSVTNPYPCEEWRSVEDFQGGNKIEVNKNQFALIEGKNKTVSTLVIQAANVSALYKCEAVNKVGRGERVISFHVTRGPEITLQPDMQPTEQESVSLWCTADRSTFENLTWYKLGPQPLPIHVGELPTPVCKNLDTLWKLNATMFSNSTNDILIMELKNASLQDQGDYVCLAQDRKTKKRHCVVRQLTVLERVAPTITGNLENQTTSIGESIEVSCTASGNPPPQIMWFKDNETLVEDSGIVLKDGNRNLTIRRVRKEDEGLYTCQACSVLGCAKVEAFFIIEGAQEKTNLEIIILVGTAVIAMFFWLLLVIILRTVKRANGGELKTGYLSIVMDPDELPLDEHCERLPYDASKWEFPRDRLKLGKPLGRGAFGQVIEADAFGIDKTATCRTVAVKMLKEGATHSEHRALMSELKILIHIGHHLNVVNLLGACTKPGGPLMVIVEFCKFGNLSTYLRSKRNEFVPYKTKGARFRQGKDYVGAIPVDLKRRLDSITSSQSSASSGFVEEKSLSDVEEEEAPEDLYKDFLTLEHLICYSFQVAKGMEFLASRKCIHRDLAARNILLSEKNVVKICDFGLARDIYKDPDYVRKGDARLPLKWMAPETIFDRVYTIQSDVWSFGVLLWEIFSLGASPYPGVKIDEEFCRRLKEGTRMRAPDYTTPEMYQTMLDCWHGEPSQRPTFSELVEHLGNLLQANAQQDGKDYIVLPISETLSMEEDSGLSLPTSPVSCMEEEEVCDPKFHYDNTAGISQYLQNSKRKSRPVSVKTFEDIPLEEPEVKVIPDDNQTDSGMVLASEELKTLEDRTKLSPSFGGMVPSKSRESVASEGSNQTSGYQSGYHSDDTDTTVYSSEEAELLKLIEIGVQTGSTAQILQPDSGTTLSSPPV", "assay": "VEGFR-2 inhibition test (human p-VEGFR-2 ELISA in HeLa cells)", "type": "cell-based", "details": "± SD, read-out: 48h IC50 VEGFR-2 inhibitory effect", "quoted_text": "Specimens, standards, and HRP-labeled detection antibodies were added sequentially to the pre-covered microtiter wells containing phosphorylated vascular endothelial growth factor receptor 2 (p-VEGFR2) antibodies, warmed, and washed thoroughly. The substrate TMB was added for color development. This substrate is converted to blue using peroxidase catalysis to a final yellow color due to the action of acid. […] Curve fitting was performed using SPSS 23.0 software to calculate IC50."}, "HeLa/DDP cells": {"test_system": "HeLa/DDP cells", "assay": "MTT assay, cisplatin-resistant HeLa/DDP cells", "type": "cell-based, human", "quoted_text": "The cytotoxicity of the target compounds were measured in vitro using the MTT assay. Cells grown in the logarithmic phase were counted and seeded in 96-well cell culture plates (5 × 10^3 cells per well) for 24 h to allow attachment of cells to the wall of the plate. […] Next, 20 μL of 5 mg.mL^−1 MTT solution was added to each well and cultured for 4 h. The old solution was discarded, replaced with 150 μL DMSO solution per well, and shaken for 10 min. The OD value was measured under 490 nm, and the inhibition rate was calculated. The nonlinear regression fitting of the cell growth rate was carried out using SPSS 23.0 software, and the IC50 of the compound was calculated. […] A complete medium containing only cells was used as the blank control, whereas a complete medium without cells was the negative control group."}, "HeLa cells": {"test_system": "HeLa cells", "assay": "Transwell migration assay", "type": "cell-based, human", "details": "24 h, control 1205", "method": "Initially, HeLa (5 × 10^4 cells) were suspended in 200 μL of an FBS-free medium. […] The lower chamber was filled with 600 μL of medium containing 10% FBS. After incubating at 37 °C for 24 h, the cells on the top side of the transwell membrane were removed with a cotton tip. The cells trapped on the bottom side of the membrane were fixed using methanol and stained using 0.1% crystal violet solution for 30 min, respectively."}}, "data": [{"smiles": "COc1cc(O)c(C(=O)/C=C/c2ccc(CN3CCC(C)CC3)cc2)cc1CN1CCC(O)CC1", "note": "[6f, (E)-1-(2-hydroxy-5-((4-hydroxypiperidin-1-yl)methyl)-4-methoxyphenyl)-3-(4-((4-methylpiperidin-1-yl)methyl)phenyl)prop-2-en-1-one]", "values": [{"measurement": "P-gp expression in HeLa/DDP cells (Western blot)", "setting": "P-gp", "result": "did not exhibit a significant variance in P-gp expression"}, {"measurement": "p-PI3K (Tyr458) in HeLa cells (Western blot)", "setting": "p-PI3K (Tyr458)", "result": "effective downregulation"}, {"measurement": "expression of Bcl-2 (Western blot)", "setting": "Bcl-2", "result": "significantly downregulating the expression of Bcl-2"}, {"measurement": "phosphorylation of VEGFR-2 in HUVEC cells (Western blot)", "setting": "p-VEGFR-2", "result": "significantly inhibited the phosphorylation of VEGFR-2"}, {"measurement": "IC50", "setting": "H8 cells", "result": "30.1 ± 2.51", "unit": "µM"}, {"measurement": "IC50", "setting": "VEGFR-2", "result": "0.75 ± 0.05", "unit": "µM"}, {"measurement": "inhibitory rate on HeLa/DDP cell line", "setting": "HeLa/DDP cells; 6f alone at 0.25, 0.5 and 1 μM", "result": "less than 10%"}, {"measurement": "RI (resistance index)", "setting": "HeLa/DDP cells; HeLa/DDP versus HeLa, single agent", "result": 1.19}, {"measurement": "IC50", "setting": "HeLa/DDP cells; Homo sapiens, cisplatin-resistant HeLa/DDP cells, single agent, 48 h, read-out: 48h IC50 HeLa/DDP", "result": "7.74 ± 0.36", "unit": "µM"}, {"measurement": "number of migrating cells", "setting": "HeLa cells; 2 μM", "result": 372}, {"measurement": "number of migrating cells", "setting": "HeLa cells; 4 μM", "result": 132}, {"measurement": "number of migrating cells", "setting": "HeLa cells; 6 μM", "result": 71}]}]}
